Legend:
Type in all cases: physicochemical
[1] = Solid form stability of 2:1 β-GPA fumarate at various temperature/humidity conditions (XRPD); details: for XRPD: a week
Method: The solid form stability of β-GPA fumarate was studied at various temperature/humidity conditions as listed in Table 23 for a week using saturated salt solution chambers. The samples were analyzed by XRPD after a week.

Bulk and tapped density = assay: Bulk and tapped density
Method: The bulk density of β-GPA oxalate (Pattern 18 B), succinate (Pattern 15A), and fumarate (Pattern 7A) were determined by pouring in a known amount of salt (g) into a measuring cylinder. The volume (Vi) occupied by the salt was recorded and the bulk density (ρB) was determined using equation 1. ρB=g/Vi (1)
The tapped densities of the salts were determined using a Tap density analyzer. A known amount of salt was poured (g) into a measuring cylinder and the initial volume was recorded and tapped using a Tap density analyzer. The final volume (Vf) after tapping was recorded and the tapped density (ρT) was calculated by using equation 2. ρT=g/Vf (2)

[2] = Temperature cycling experiments of 2:1 β-GPA fumarate
Method: The following (Table 26) experiments were performed to isolate possible polymorphic forms of 2:1 β-GPA fumarate.

[3] = Carr's index and Hausner ratio (predicted flowability)
Description: The flow properties of β-GPA are sub-optimal. The bulk density is 0.389 g/cc and the tapped density is 0.627 g/cc. These measurements can be used to calculate the Carr's index and Hausner ratio for a substance. The Carr's index and Hausner ratio are indicators of flowability of a powder. As known in the art, e.g., as described in Carr R. L. Chem. Eng. 1965, 72, 163-168, the relationship to flowability of a powder to the Carr's index and Hausner ratio is based on the scale shown in Table 6 below.
Carr's index or Carr's compressibility index (C) is an indication of the compressibility of a powder. It can be calculated using the equation below: Carr's index (C)=100(Vi−Vf)/Vi (3) A Carr's index greater than 25 is considered to be an indication of poor flowability while a value below 15 is an indication of good flowability.
The Hausner ratio is a number that is correlated to the flowability of a powder or granular material. It is calculated by using the equation below: Hausner ratio=Vi/Vf (4)

[4] = Dynamic vapor sorption (DVS) with XRPD of the post-DVS sample; details: for solid form by XRPD after the DVS experiment: post DVS sample
Method: Samples were analyzed using an Aquadyne DVS-2 gravimetric water sorption analyzer. The relative humidity was adjusted between 2-95% and the weight of the sample was continuously monitored and recorded.
[…]: β-GPA maleate (1:1) Form II, β-GPA fumarate (1:1), β-GPA maleate (2:1), β-GPA succinate (2:1) and β-GPA oxalate (1:1) were analyzed by DVS experiment followed by XRPD analysis of the sample at the end of the experiment.
Sample 2162-64-1 was analyzed by DVS in triplicate and the post DVS samples were characterized by XRPD to identify the form at the end of the experiment.

[5] = Gravimetric solubility of 2:1 β-GPA fumarate in solvents
Method: Solubility of β-GPA fumarate was measured gravimetrically in fifteen different solvents and solvent mixtures at 15 and 45° C. About 100 mg of the compound was dispensed in ten volumes (1 mL) of the solvent/solvent mixture and slurried for 48 hours. Table 24 represents the solubility of β-GPA fumarate in different solvents. After 48 hours the vials were centrifuged. The supernatant was collected and left for slow evaporation under vacuum at 45° C. and solubility was determined. The solids obtained after centrifugation and evaporation were analyzed by XRPD.

[6] = Carr's index and Hausner ratio (predicted flowability); details: Table 18, scale of Table 17
[7] = Flowability measurement using Hanson Flodex unit
Description: Method: A cylindrical vessel is secured to the stand and above that a funnel is also secured such that the bottom of the funnel is close to the vessel. A powder load of ≈50-60 g is then poured through the funnel into the middle of the cylinder. The lever device is pulled to open the hole in the disk quickly and without vibration. If a powder slowly flows through the small-diameter holes, leaving a cavity shaped like an upside-down, truncated cone, the test is considered positive. If a powder flocculates in bulk and falls abruptly, forming a cylindrical cavity, the test is considered negative. […] If the experiment is negative, the powder is tested again with a disk having a larger hole.

[8] = calculated from bulk and tapped volumes

In the case of `N=C(N)NCCC(=O)O.N=C(N)NCCC(=O)O.O=C(O)/C=C/C(=O)O` [β-GPA fumarate (2:1)], the XRPD ([1]; 20° C., 43% relative humidity) is reported as “Pattern 7A”, the XRPD ([1]; 20° C., 59% relative humidity) is reported as “Pattern 7A” and the XRPD ([1]; 20° C., 73% relative humidity) is reported as “Pattern 7A”. The XRPD ([1]; 20° C., >95% relative humidity) was “Pattern 7A”, the XRPD ([1]; 40° C., 82% relative humidity) was “Pattern 7A” and the XRPD ([1]; 60° C., 50% relative humidity) was “Pattern 7A”. For the same molecule, the XRPD ([1]; 60° C., 80% relative humidity) was “Pattern 7A”, the solid form stability ([1]; RH >95% at 20° C.) was “stable” and the XRPD pattern ([1]; RH >95% at room temperature, 48 hours) was “retain its original XRPD pattern (Pattern 7A)”. The Bulk density (Bulk and tapped density) was 0.576 g/cc, the Tapped density (Bulk and tapped density) was 0.613 g/cc and the “Result (XRPD)” value ([2]; 50° C. 2 hours, RT, 50° C. 48 hours) was “Pattern 7A”. The “Result (XRPD)” value ([2]; dry ice-acetone 30 minutes, RT) was “Pattern 7A”, the “Result (XRPD)” value ([2]; heated to 150° C. and brought to room temperature, cycle repeated three times) was “Pattern 7A” and the “Result (XRPD)” value ([2]; vacuum oven 130° C. 2 hours, RT, 130° C. 48 hours) was “Pattern 7A”. The “Carr's index” value [3, 8] was 5.9, the Hausner ratio [3, 8] was 1.063 and the Flow character ([3]; predicted, scale of Table 6 (Carr's index)) was “Excellent (1-10)”. The “moisture uptake during the DVS experiment” value [4] was “less than 0.1%”, the “solid form by XRPD after the DVS experiment” value ([4]; listed as 2:1 fumarate salt) was “did not exhibit any dissociation of the salt” and the “solid form by XRPD after the DVS experiment” value ([4]; listed as 2162-64-1) was “identical to β-GPA fumarate (Pattern 7A)”. It also gave a Solubility ([5]; Acetone, 15° C.) of less than 1000 µg/mL, a Solubility ([5]; Acetone, 45° C.) of less than 1000 µg/mL and a Solubility ([5]; Acetone:H2O (9:1), 15° C.) of 2500 µg/mL. It also gave a Solubility ([5]; Acetone:H2O (9:1), 45° C.) of 4100 µg/mL, a Solubility ([5]; DCM, 15° C.) of less than 1000 µg/mL and a Solubility ([5]; DCM, 45° C.) of 500 µg/mL. For the same molecule, the Solubility ([5]; EtOAc, 15° C.) was less than 1000 µg/mL, the Solubility ([5]; EtOAc, 45° C.) was less than 1000 µg/mL and the Solubility ([5]; EtOH, 15° C.) was less than 1000 µg/mL. The Solubility ([5]; EtOH, 45° C.) was less than 1000 µg/mL, the Solubility ([5]; H2O:MeOH:IPA (3:5.5:5), 15° C.) was less than 1000 µg/mL and the Solubility ([5]; H2O:MeOH:IPA (3:5.5:5), 45° C.) was less than 1000 µg/mL. For the same molecule, the Solubility ([5]; Heptane, 15° C.) was less than 1000 µg/mL, the Solubility ([5]; Heptane, 45° C.) was less than 1000 µg/mL and the Solubility ([5]; IPA, 15° C.) was less than 1000 µg/mL. For the same molecule, the Solubility ([5]; IPA, 45° C.) was less than 1000 µg/mL, the Solubility ([5]; IPA:H2O (9:1), 15° C.) was 1640 µg/mL and the Solubility ([5]; IPA:H2O (9:1), 45° C.) was 2100 µg/mL. For the same molecule, the Solubility ([5]; MeCN, 15° C.) was less than 1000 µg/mL, the Solubility ([5]; MeCN, 45° C.) was less than 1000 µg/mL and the Solubility ([5]; MeOH, 15° C.) was roughly 1000 µg/mL. The Solubility ([5]; MeOH, 45° C.) was 2730 µg/mL, the Solubility ([5]; MeOH:H2O (9:1), 15° C.) was 9200 µg/mL and the Solubility ([5]; MeOH:H2O (9:1), 45° C.) was 11200 µg/mL. It also gave a Solubility ([5]; TBME, 15° C.) of 3000 µg/mL, a Solubility ([5]; TBME, 45° C.) of 28900 µg/mL and a Solubility ([5]; THF:H2O (9:1), 15° C.) of 2080 µg/mL. For the same molecule, the Solubility ([5]; THF:H2O (9:1), 45° C.) was 4120 µg/mL, the Solubility ([5]; Water, 15° C.) was 30000 µg/mL and the Solubility ([5]; Water, 45° C.) was greater than 100000 µg/mL. For the same molecule, the “XRPD analysis of the precipitates after 48 hours slurries” value ([5]; fifteen solvents and solvent mixtures at 15 and 45° C.) was “no form transformations”, the Flow character [6] was “Excellent (1-10)” and the “Did solid pass?” value ([7]; Disc pore size 4 mm) was “No”. For the same molecule, the “Did solid pass?” value ([7]; Disc pore size 5 mm) was “Yes”, the “Did solid pass?” value ([7]; Disc pore size 6 mm) was “Yes” and the “Did solid pass?” value ([7]; Disc pore size 12 mm) was “Yes”.
